Assay results reported in US20240245780A1, “PHARMACEUTICAL COMPOSITIONS CONTAINING STABLE AMORPHOUS SOLID SOLUTIONS AND DISPERSIONS” (Eastman Chemical Company, priority 2021, published 2024).
Where two headings read alike, the source gives them in different places.

Key:
[1] = cited from earlier work
[2] = Solubility study of PSD in heated SAIB, HPLC; type: physicochemical
Protocol: Analysis of drugs was performed by HPLC. […] Solubility was determined in three replicates for each drug.
SAIB was heated to 150° C. (RFX, DST, DLT, CYS, ITZ, SRL, APT and CBZ) or 130° C. (TAC and APZ), followed by addition of a known amount of the drug to dissolve in 30 min. Approximately, 100 mg of each sample were transferred to a 100-mL volumetric flask, and volume was made up with the mobile phase to dissolve the drug. The amount of dissolved drug was determined by validated HPLC.

[3] = JECFA 1996, including pediatric populations; cited from earlier work
[4] = SAIB temperature 150° C., 30 min, three replicates

Molecule	pKa [1]	Solubility in SAIB [2, 4]	Increase in Solubility Relative to Water [2] [x]	also measured
CO[C@H]1C[C@@H]2CC[C@@H](C)[C@@](O)(O2)C(=O)C(=O)N2CCCC[C@H]2C(=O)O[C@H]([C@H](C)C[C@@H]2CC[C@@H](O)[C@H](OC)C2)CC(=O)[C@H](C)/C=C(\C)[C@@H](O)[C@@H](OC)C(=O)[C@H](C)C[C@H](C)/C=C/C=C/C=C/1C [Sirolimus]	10	1.9 ± 0.0 mg/g	–	–
Cc1nc(Nc2ncc(C(=O)Nc3c(C)cccc3Cl)s2)cc(N2CCN(CCO)CC2)n1 [Dasatinib]	–	insoluble	–	–
C=CC[C@@H]1/C=C(\C)C[C@H](C)C[C@H](OC)[C@H]2O[C@@](O)(C(=O)C(=O)N3CCCC[C@H]3C(=O)O[C@H](/C(C)=C/[C@@H]3CC[C@@H](O)[C@H](OC)C3)[C@H](C)[C@@H](O)CC1=O)[C@H](C)C[C@@H]2OC [Tacrolimus]	10	–	9591.7	Solubility in SAIB (in words) ([2]; SAIB at 130 or 150° C.): high solubility; Solubility in SAIB ([2]; SAIB temperature 130° C., 30 min, three replicates, listed as TAC): 115.1 ± 2.3 mg/g; Solubility in SAIB ([2]; SAIB temperature 130° C., 30 min, three replicates, listed as Tracolimus): 115.1 ± 2.3 mg/g
CCC(C)n1ncn(-c2ccc(N3CCN(c4ccc(OCC5COC(Cn6cncn6)(c6ccc(Cl)cc6Cl)O5)cc4)CC3)cc2)c1=O (stereo not shown) [Itraconazole]	–	insoluble	–	–
NC(=O)N1c2ccccc2C=Cc2ccccc21 [Carbamazepine]	–	76.5 ± 4.0 mg/g	532.3	Solubility in SAIB (in words) ([2]; SAIB at 130 or 150° C.): high solubility; Solubility in SAIB ([2]; SAIB temperature 150° C., 30 min, three replicates, listed as CBZ): 76.5 ± 4.0 mg/g
O=C1CCc2ccc(OCCCCN3CCN(c4cccc(Cl)c4Cl)CC3)cc2N1 [Aripiprazole]	–	–	–	Solubility in SAIB [2]: 21.6 ± 2.6 mg/g
C[C@@H](O[C@H]1OCCN(Cc2n[nH]c(=O)[nH]2)[C@H]1c1ccc(F)cc1)c1cc(C(F)(F)F)cc(C(F)(F)F)c1 [Aprepitant]	10	–	55.7	–
C[C@@H]1CCO[C@H]2Cn3cc(C(=O)NCc4ccc(F)cc4F)c(=O)c(O)c3C(=O)N12 [Dolutegravir]	8	1.7 ± 0.4 mg/g	–	–
sucrose acetate isobutyrate [SAIB]	–	–	–	permanent acceptable daily intake [3]: up to 20 mg/kg body weight; log P of SAIB [1]: 6
CO[C@H]1/C=C/O[C@@]2(C)Oc3c(C)c(O)c4c(O)c(c5c(nc6cc(C)ccn65)c4c3C2=O)NC(=O)/C(C)=C\C=C\[C@H](C)[C@H](O)[C@@H](C)[C@@H](O)[C@@H](C)[C@H](OC(C)=O)[C@@H]1C [Rifaximin]	7	–	–	Solubility in SAIB (in words) [2]: high solubility
